Laboratory results published in US9526720B2, “Modulators of hepatic lipoprotein metabolism” (The Broad Institute, Inc., priority 2012, dated 2016).
“Also recorded” adds a separate entry of the source.

How the values were obtained:
ApoB = test: ELISA of secreted ApoB in HepG2 cells; type: cell-based, human; settings: for secretion of apoB into the media / ApoB levels (in words): HepG2; for ELISA ApoB: HepG2 cells
Description: (§1) Additional secondary assays were performed in HepG2 cells to further characterize the cellular response to treatment with select confirmed TRIB1 inducer hits. The results of the ELISA, CTG, and qPCR secondary assays are summarized in Table B. For all secondary assays, the experiments were performed using powders of freshly purified compounds.
(§2) To further characterize the relationship of TRIB1 induction and PCSK9 reduction, ELISAs were performed to measure the levels of secreted ApoB, PCSK9, and LDLR. […] As predicted treatment with TRIB1 inducer hits caused a decrease in ApoB levels detected by ELISA. In parallel effort, 3200 BIOA and NATP compounds were screened for PCSK9 expression inhibitors. Hits were defined as inducing greater than 3-fold downregulation of PCSK9, and 3.8% of the screened compounds were confirmed as hits. […] In further experiments, a strong correlation was confirmed between TRIB1 induction and PCSK9 repression in DOS Collection hits. ELISA analysis confirmed that treatment with TRIB1 inducers reduced the PCSK9 protein levels. LDLR protein levels were also analyzed by ELISA to determine whether compounds that modulate both TRIB1 and PCSK9 had any effect on LDLR protein levels.

LDLR [1] = test: ELISA of LDLR protein in HepG2 cells; type: cell-based, human; settings: for increase of the LDL receptor protein in the cell: HepG2; for ELISA LDLR: HepG2 cells
Description: as §1, §2

PCSK9 [2] = test: ELISA of secreted PCSK9 protein in HepG2 cells; type: cell-based, human; settings: for ELISA PCSK9: HepG2 cells; for inhibition of secretion of PCSK9 protein into the media: at the maximal dose tested, HepG2
Description: as §1, §2

HepG2 cells [3] = test: Cell Titer Glo (CTG) cell viability assay; type: cell-based, human; parameters: key: A: Increase <2-fold; B: Increase >2-fold; X: Decrease <2-fold; Y: Decrease >2-fold; No significant change; settings: cell viability (ATP)
Description: Cell viability was determined using a Cell Titer Glo (CTG) assay ([…]) after treatment with TRIB1 inducer compounds. In this assay, the number of viable cells in culture is based on quantitation of ATP, which indicates metabolically active cells. Addition of the reagent results in cell lysis and generation of a luminescent signal proportional to the amount of ATP present, which is directly proportional to the number of viable, metabolically active cells present in culture. Most TRIB1 inducer compounds had no significant effect on cell viability.

TRIB1 [4] = test: qPCR TRIB1 expression in HepG2 cells; type: cell-based, human; settings: for TRIB1 expression (in words) / potency relative to berberine: HepG2; for TRIB1 expression (in words): qPCR; for fold induction at 10 µM: Homo sapiens, 20 h, HepG2 cells; for potency relative to berberine: TRIB1, LDLR, PCSK9 and MTTP gene expression changes
Description: (§3) In the primary screen, HepG2 cells were plated in 384-well plates at 2000 cells per well and incubated for 20 hours with each compound in duplicate at 10 microM concentration. Then RNA was isolated, reverse-transcribed to cDNA, and stored at −80° C. Expression levels of TRIB1 and other target genes, such as SORT1 and PCSK9, were determined by quantitative PCR. Relative gene expression level was normalized to expression of the housekeeping gene, GAPDH. A “hit” was defined as those compounds that caused a greater than 2-fold increase in relative target gene expression when normalized to GAPDH expression, compared to DMSO-treated control. Using these criteria, 130 hits were identified for TRIB1 (0.8% hit rate).
(§4) Further analysis of the expression levels of various proteins in the cholesterol and triglyceride biosynthetic pathways in response to TRIB1 inducer treatment was performed. In particular, transcript levels of additional lipoprotein metabolism pathway proteins SCAP, SREBF1, SREBF2, HMGCR, HMGCS, SCD1, FASN and MTTP were assessed by qPCR, along with TRIB1, LDLR, and PCSK9. The gene expression profile for the same subset of genes was also assessed after treatment with the statin atorvastatin (Lipitor), commonly used in therapy for hypercholesterolemia and other cardiovascular diseases.
(§5) The kinetics of the modulation of TRIB1, LDLR, PCSK9 and MTTP gene expression after treatment by select TRIB1 inducer compounds was monitored by qPCR analysis (FIG. 4). RNA was extracted from cells at various timepoints over 28 hours of treatment (0, 2, 4, 6, 8, 24, 28 hours). Specifically, compounds 12a and 14a induced transcriptional responses over time similar to those produced by berberine, a plant alkaloid used in Chinese medicine. […] Both compound 12a and compound 14a induce TRIB1 and LDLR and repress PCSK9 and MTTP expression with similar kinetics and similar fold change as berberine Importantly, both compounds induce these gene expression changes at much lower concentrations than berberine. […] This increased potency indicates the potential therapeutic efficacy of such compounds for treatment of cardiovascular diseases, particularly hypercholesterolemia and related conditions.

SCAP = test: qPCR SCAP transcript level in HepG2 cells; type: cell-based, human; parameters: key: A: Increase <2-fold; B: Increase >2-fold; X: Decrease <2-fold; Y: Decrease >2-fold; No significant change
Description: as §3, §4

SREBF1 = test: qPCR SREBF1 transcript level in HepG2 cells; type: cell-based, human; parameters: key: A: Increase <2-fold; B: Increase >2-fold; X: Decrease <2-fold; Y: Decrease >2-fold; No significant change
Description: as §3, §4

SREBF2 = test: qPCR SREBF2 transcript level in HepG2 cells; type: cell-based, human; parameters: key: A: Increase <2-fold; B: Increase >2-fold; X: Decrease <2-fold; Y: Decrease >2-fold; No significant change
Description: as §3, §4

PCSK9 [5] = test: qPCR PCSK9 expression in HepG2 cells; type: cell-based, human; settings: for PCSK9 expression (in words) / inhibition of expression of PCSK9 mRNA: HepG2; for PCSK9 expression (in words): qPCR; for fold induction at 10 µM: Homo sapiens, 20 h, HepG2 cells; for inhibition of expression of PCSK9 mRNA: at the maximal dose tested
Description: as §3, §4, §5

LDLR [6] = test: qPCR LDLR expression in HepG2 cells; type: cell-based, human; settings: for LDLR expression (in words): HepG2, qPCR; for qPCR LDLR: HepG2 cells
Description: as §3, §4, §5

HMGCR = test: qPCR HMGCR transcript level in HepG2 cells; type: cell-based, human
Description: as §3, §4

HMGCS = test: qPCR HMGCS transcript level in HepG2 cells; type: cell-based; settings: Homo sapiens, 20 h
Description: as §3, §4

FASN = test: qPCR FASN transcript level in HepG2 cells; type: cell-based; settings: Homo sapiens, 20 h
Description: as §3, §4

SCD1 = test: qPCR SCD1 transcript level in HepG2 cells; type: cell-based; settings: Homo sapiens, 20 h
Description: as §3, §4

APOC3 = test: Transcriptional profiling of APOC3 gene in HepG2 cells; type: cell-based, human; settings: 10 μM, 24 hours
Excerpt: Expression of APOC3 is associated with increased levels of triglycerides in plasma and carriers of APOC3 gene null mutation have low levels of triglycerides and are protected from cardiovascular disease (Pollin et al., Science, 322:1702, 2008).

MTTP = test: qPCR MTTP expression in HepG2 cells; type: cell-based, human; settings: 28 hour time course
Description: as §4
The kinetics of the modulation of TRIB1, LDLR, PCSK9 and MTTP gene expression after treatment by select TRIB1 inducer compounds was monitored by qPCR analysis (FIG. 4). RNA was extracted from cells at various timepoints over 28 hours of treatment (0, 2, 4, 6, 8, 24, 28 hours). Specifically, compounds 12a and 14a induced transcriptional responses over time similar to those produced by berberine, a plant alkaloid used in Chinese medicine. […] Both compound 12a and compound 14a induce TRIB1 and LDLR and repress PCSK9 and MTTP expression with similar kinetics and similar fold change as berberine Importantly, both compounds induce these gene expression changes at much lower concentrations than berberine. […]

HepG2 cells [7] = test: BODIPY-FL LDL uptake in HepG2 cells (high content microscopy); type: cell-based, human; settings: treated 20 hours; BODIPY-FL LDL uptake monitored 5 hours
Description: TRIB1 inducers increase the rate of LDL uptake. HepG2 cells grown under standard culture conditions (10% FBS) were treated for 20 hours with compounds 2a, 14a and 12a at indicated concentrations and the uptake of BODIPY-FL conjugated LDL particles was monitored for 5 hours using high content microscopy. To control for regulation of LDL uptake by cholesterol, cells were grown in media depleted for (0.5% LPDS—lipoprotein deficient serum) or supplemented with cholesterol (0.5% LPDS plus cholesterol ([…] cholesterol and […] 25-OH cholesterol)).

LDLR [8] = test: qPCR LDLR expression in HepG2 cells; type: cell-based, human; settings: for induction of LDLR expression in combination with simvastatin (in words): overnight simvastatin, then compound
TRIB1 [9] = test: qPCR TRIB1 expression in HepG2 cells; type: cell-based; settings: Homo sapiens, HepG2; induction of TRIB1 and LDLR transcript levels; read-out: half maximal effective concentration (EC50)

SMILES	secretion of apoB into the media / ApoB levels (in words) (ApoB)	ELISA ApoB (ApoB)	increase of the LDL receptor protein in the cell (LDLR [1])	ELISA LDLR (LDLR [1])	ELISA PCSK9 (PCSK9 [2])	inhibition of secretion of PCSK9 protein into the media (PCSK9 [2])	CTG (HepG2 cells [3])	TRIB1 expression (in words) (TRIB1 [4])	fold induction at 10 µM (TRIB1 [4])	potency relative to berberine (TRIB1 [4])	qPCR SCAP (SCAP)	qPCR SREBF1 (SREBF1)	qPCR SREBF2 (SREBF2)	PCSK9 expression (in words) (PCSK9 [5])	fold induction at 10 µM (PCSK9 [5])	inhibition of expression of PCSK9 mRNA (PCSK9 [5])	expression of PCSK9 stimulated by pretreatment with atorvastatin (in words) (PCSK9 [5])	LDLR expression (in words) (LDLR [6])	rate of LDL uptake (in words) (HepG2 cells [7])	induction of LDLR expression in combination with simvastatin (in words) (LDLR [8])	also measured
CN(C)c1ccc2c(c1)[C@@H]1C[C@@H](CC(=O)NCc3ccc(Oc4ccccc4)cc3)O[C@@H](CO)[C@@H]1O2 [Compound 12a]	inhibited secretion of apoB	Y (Decrease >2-fold)	3 fold	B (Increase >2-fold)	Y (Decrease >2-fold)	70%	N	induce; also recorded: robustly induced	< 2	5 fold	X (Decrease <2-fold)	Y (Decrease >2-fold)	Y (Decrease >2-fold)	repress; also recorded: strongly reduced	> 2	70%	potently reduced	induction of LDLR expression; also recorded: induce; also recorded: robustly induced	robust increase	additive effect	qPCR LDLR (LDLR [6]): A (Increase <2-fold); qPCR HMGCR (HMGCR): Y (Decrease >2-fold); fold induction at 10 µM (HMGCS): > 2; fold induction at 10 µM (FASN): > 2; fold induction at 10 µM (SCD1): > 2; expression of APOC3 gene (in words) (APOC3): down regulates; MTTP expression (in words) (MTTP): repress
CN1C(=O)c2cc(NC(=O)c3ccc(C(F)(F)F)cc3)ccc2OC[C@@H]2O[C@H](CC(=O)NC3Cc4ccccc4C3)CC[C@@H]21 [Compound 14a]	–	–	–	–	–	–	–	induce; also recorded: robustly induced	–	10 fold	–	–	–	repress; also recorded: strongly reduced	–	–	potently reduced	induce; also recorded: robustly induced	robust increase	additive effect	EC50 (ApoB; Homo sapiens, HepG2, 24 h, read-out: ELISA 24 Hr (EC50 uM) ApoB decrease): 1.1 to 2 µM; EC50 (PCSK9 [2]; Homo sapiens, HepG2, 24 h, read-out: ELISA 24 Hr (EC50 uM) PCSK9 decrease): 0.51 to 1 µM; decrease of PCSK9 mRNA below the level induced by cholesterol starvation (PCSK9 [5]; 2.5 μM, 0.5% LPDS, 24 h): 3.8 fold; EC50 (LDLR [6]; Homo sapiens, HepG2, 6 h, read-out: qPCR 6Hr (EC50 uM) LDLR up-regulation): 0.51 to 1 µM; MTTP expression (in words) (MTTP): repress; EC50 (TRIB1 [9]): < 1 µM; LDLR signal over the non-depleted control (LDLR [8]; 2.5 μM, 0.5% LPDS, 24 h): 9 fold
CN1C(=O)c2cc(NC(=O)c3ccc(C(F)(F)F)cc3)ccc2OC[C@@H]2O[C@@H](CC(=O)NC3Cc4ccccc4C3)CC[C@@H]21 [Compound 2a]	inhibited secretion of apoB	Y (Decrease >2-fold)	3 fold	B (Increase >2-fold)	Y (Decrease >2-fold)	70%	N	robustly induced	> 2	–	N	N	N	strongly reduced	> 2	70%	potently reduced	induction of LDLR expression; also recorded: robustly induced	robust increase	additive effect	qPCR LDLR (LDLR [6]): B (Increase >2-fold); qPCR HMGCR (HMGCR): Y (Decrease >2-fold); fold induction at 10 µM (HMGCS): > 2; fold induction at 10 µM (FASN): > 2; fold induction at 10 µM (SCD1): > 2; expression of APOC3 gene (in words) (APOC3): down regulates
